The record followed here is US12247223B2, “Human liver-like three-dimensional structure, method for evaluating hepatotoxicity and human liver-like complex” (CYFUSE BIOMEDICAL K.K., priority 2019, dated 2025).

The subject of data set [1] is human liver-like three-dimensional construct A′. To be noted: 10 μmol/l. The protocol: A DMSO solution of phenytoin was prepared. The obtained drug-containing DMSO solution was added to the culture medium of the human liver-like three-dimensional construct A′ fabricated in Experimental example 3′ such that the concentration of the drug in the medium was 10 μmol/l. The medium was sampled up to 6 days following the drug addition, and the metabolic products in the medium were subjected to separation and structural analysis by a LC/MS/MS method. The abbreviations of the metabolites stand for the following constructs.
A DMSO solution of Torcetrapib was prepared. The obtained drug-containing DMSO solution was added to the culture medium of the human liver-like three-dimensional construct A′ fabricated in Experimental example 3′ such that the concentration of the drug in the medium was 10 μmol/l. The medium was sampled up to 6 days following the drug addition, and the metabolic products in the medium were subjected to separation and structural analysis by a LC/MS/MS method.

In the next data set the test system is monolayer culture system. The experiment in a line: Albumin concentration in monolayer culture system (standard of comparison). The note with it: monolayer culture as standard of comparison (details omitted). In kind it is cell-based.
The subject of data set [2] is human liver-like three-dimensional construct A. The experiment in a line: Number and particle-size distribution of exosome particles (qNano). The note with it: three days after drug addition. In kind it is cell-based. Here is the method: The culture medium of Experimental example 5 was centrifuged at 4° C. and 2,000×g for 20 minutes, followed by centrifugation of the collected supernatant at 15,000×g for 30 minutes. To 2.2 mL of each collected sample solution, 1.1 mL of ExoCap Ultracentrifugation/Storage Booster (registered trademark) and 7.7 mL of ultrapure water were added. The resultant was homogeneously stirred and subjected to ultracentrifugation protocol (35,000 rpm, 70 minutes,4° C.). […]
(§1) The number and the particle-size distribution of the exosome particles were measured using qNano (nanoparticle multi-analyzer). In addition, expression of CD9 in the collected exosomes was confirmed by Western blotting. miRNAs contained in a sample extracted from the exosomes using a RNA extraction kit were measured by digital PCR. Furthermore, microRNAs contained in the exosomes were taken out and the amounts of miR-122, miR-192 and miR-1 were quantified by a quantitative PCR method. […]
An increase in the particle number concentration of the exosomes contained in the media was observed only three days after the drug addition. Furthermore, miR-122 was detected in the collected exosomes.

The test system is the same in data set [3]. The experiment in a line: miR-122-5p in exosomes released from the construct, digital PCR. The note with it: exosomes from culture medium of Experimental example 5. It is filed as cell-based. Here is the method:
(§2) A DMSO solution of trovafloxacin, a drug that is known to show hepatotoxicity when administered to a human, was prepared. […] Changes in the albumin concentrations in the media up to 24 days following addition of the drug, and the levels of ATP contained in the constructs at the end of the experiment were measured using CellTiter-Glo 3D substrate. Furthermore, tissue sections of the constructs were prepared to obtain images of HE staining and immunostaining for albumin.
The culture medium of Experimental example 5 was centrifuged at 4° C. and 2,000×g for 20 minutes, followed by centrifugation of the collected supernatant at 15,000×g for 30 minutes. To 2.2 mL of each collected sample solution, 1.1 mL of ExoCap Ultracentrifugation/Storage Booster (registered trademark) and 7.7 mL of ultrapure water were added. […]
as §1

For data set [4] the test system is unchanged. Nature of the data set: Assessment of hepatotoxicity: albumin concentration in the medium of the construct. In kind it is cell-based. To be noted: drug 5-1000 μmol/l in medium, up to 24 days. The protocol:
as §2
DMSO solutions of 20 kinds of drugs that were known to show hepatotoxicity upon administration to a human were prepared. […] Changes in the albumin concentrations in the media 7 and 14 days following addition of the drug are shown in FIG. 8, in which data were normalized to the albumin concentration in the medium added with DMSO only (taken as 100%).

With `CCOC(=O)N1c2ccc(C(F)(F)F)cc2[C@@H](N(Cc2cc(C(F)(F)F)cc(C(F)(F)F)c2)C(=O)OC)C[C@H]1CC` [Torcetrapib], the “metabolic products separated and detected by LC” value in data set [1] was “Two kinds of metabolic products M2 and M5”.
With `N[C@@H]1[C@H]2CN(c3nc4c(cc3F)c(=O)c(C(=O)O)cn4-c3ccc(F)cc3F)C[C@@H]12` [Trovafloxacin, trovafloxacin], the “albumin concentration, monolayer culture system” value with monolayer culture system is “no decrease”. For the same compound, in data set [2], the “particle number concentration of the exosomes in the media” value is listed as “increase”. Besides, the “miR-122 in the collected exosomes” value in data set [3] is “detected”. The “albumin concentration in the medium” value in data set [4] is listed as “drug concentration-dependent decrease”.
